The values that follow come from BindingDB's records for doi:10.1016/j.bmc.2010.09.053 (Umr Cnrs 7201, 2012).

This assay in a line: Inhibition of bovine liver beta-glucosidase.

As for `C[C@@H]1CNC[C@@H](O)[C@@H](O)[C@@H]1O`, inhibition was half-maximal at 244 µM (IC50).
